From patent US5972598A, “Methods for preventing multidrug resistance in cancer cells” (priority 1995, dated 1999)
“Also recorded” adds a separate entry of the source. Like-named read-outs stand apart in the source and are kept apart here.

Columns and labels:
[1] = test system: MDR1; test: Inhibition of cytotoxic drug (Ara-C) induced MDR1 expression by protein kinase inhibitors; assay type: cell-based, human; settings: for inhibition of Ara-C induced MDR1 expression: 5 μM
[2] = test system: H9 cells; test: Cellular toxicity in H9 cells; settings: concentrations higher than 5 μM
[3] = test system: protein kinases; settings: 10-fold weaker than H7; Pelosin et al., 1990; cited from earlier work
[4] = test system: MDR1; set-up: key to the marks not given beside the values
[5] = test system: P-glycoprotein; test: UIC2 antibody staining of P-glycoprotein on the cell surface; assay type: cell-based; settings: human PBL
Protocol: (§1) P-glycoprotein expression on the cell surface was analyzed using a P-glycoprotein-specific mouse IgG2a monoclonal antibody (mAB) UIC2 (Mechetner and Roninson, 1992, Proc. Natl. Acad. Sci. USA 89:5824-5828). Mouse IgG2a isotype control antibody was obtained from Sigma. For staining of PBL with UIC2 mAB or isotype control, 10^6 cells were stained at 4° C. with 10 μg of the antibody for 30 minutes and, after two washes, stained for 30 minutes with 10 μg of FITC-conjugated goat anti-mouse IgG2a antibody (Fisher Scientific, Fairlawn, N.J.), diluted 1:2 with PBS plus 2% FCS. Cells were then washed twice with ice-cold PBS plus 2% FCS, stained with PI and kept on ice until analysis. Essentially the same protocol was used for staining of other cell types except that 2 μg of the secondary antibody were used per 10^6 cells. In some experiments, phycoerythrine (PE)-conjugated goat anti-mouse IgG2a was used as the secondary antibody; no PI was added in such cases. Flow cytometric analysis was conducted on a Coulter Epics 753 Flow Cytometer.
To determine if the observed effect of PKC stimulants on P-glycoprotein activity could be due to an increase in P-glycoprotein expression, untreated and TPA-treated PBL were stained by indirect immunofluorescence labeling with a monoclonal antibody UIC2 that recognized an extracellular epitope of P-glycoprotein encoded by the human MDR1 gene. […]

[6] = test system: MDR1; assay type: cell-based, human
Protocol: (§2) Neomycin sulfate (Calbiochem) was dissolved in sterile, deionized water.
as §1
(§3) RNA was extracted from approximately 10^6 cells by a small-scale sodium dodecyl sulfate extraction procedure (Peppel and Baglioni, 1990, BioTechniques 9:711-713). In the alternative, RNA was isolated from cells using the TRIzol method (commercially available from GIBCO/BRL). cDNA synthesis and polymerase chain reaction (PCR) amplification of MDR1 and β2 -microglobulin cDNA sequences were carried out essentially as described (Noonan et al., 1990, Proc. Natl. Acad. Sci. USA 87:7160-7164; Noonan and Roninson, 1991, pp. 319-333 In Roninson (Ed.), Molecular and Cellular Biology of Multidrug Resistance in Tumor Cells, Plenum Press, New York). Briefly, cDNA was prepared using the method of Krug and Berger (1987, Meth. Enzymol. 152: 316-324), with the modification that random hexamers were substituted for oligo(dT) as primers for cDNA synthesis. (Commercially-available kits (for example, from GIBCO/BRL, Gaithersburg, Md.) can be advantageously modified for making cDNA using random hexamers.) PCR is then performed using the following primers: […]
(§4) (where β2 M represents β2 microglobulin). PCR was performed for β2 M experiments under a regime consisting of 1 cycle comprising denaturation at 94° C. for 3 minutes, primer annealing at 60° C. for 30 seconds, and primer extension at 72° C. for 1 minute, followed by 19 cycles comprising denaturation at 94° C. for 30 seconds, primer annealing at 60° C. for 30 seconds, and primer extension at 72° C. for 1 minute, followed by a final cycle comprising denaturation at 94° C. for 30 seconds, primer annealing at 60° C. for 30 seconds, and primer extension at 72° C. for 5 minutes. MDR1 cDNA sequences were amplified using the identical protocol as for β2 M, but extending the amplification from 19 cycles to 25 cycles. In addition, the cDNA-PCR amplification protocol contained the following modifications: (i) Taq DNA polymerase was added to the PCR mixtures after initial heating of the samples to 94° C. (ii) The yield of the β2 -microglobulin-specific band, obtained after 22-28 cycles of PCR, was used as the primary criterion for equalizing the starting amounts of the cDNA templates in different preparations, in order to account for differential RNA degradation in cells subjected to different types of treatment. […] PCR products were detected by autoradiography.
MDR1 gene expression was evaluated by a functional assay for Rh123

[7] = test system: MDR1; test: cDNA-PCR / flow cytometric analysis of MDR1 induction by PKC agonists; assay type: cell-based, human
Protocol: as §2, §1, §3, §4

[8] = molecular target: P-glycoprotein (Homo sapiens, UniProt P08183); test: Rh123 accumulation assay of P-glycoprotein activity in human PBL; settings: human PBL
Chain of P-glycoprotein (Homo sapiens, UniProt P08183) (P08183 whole entry): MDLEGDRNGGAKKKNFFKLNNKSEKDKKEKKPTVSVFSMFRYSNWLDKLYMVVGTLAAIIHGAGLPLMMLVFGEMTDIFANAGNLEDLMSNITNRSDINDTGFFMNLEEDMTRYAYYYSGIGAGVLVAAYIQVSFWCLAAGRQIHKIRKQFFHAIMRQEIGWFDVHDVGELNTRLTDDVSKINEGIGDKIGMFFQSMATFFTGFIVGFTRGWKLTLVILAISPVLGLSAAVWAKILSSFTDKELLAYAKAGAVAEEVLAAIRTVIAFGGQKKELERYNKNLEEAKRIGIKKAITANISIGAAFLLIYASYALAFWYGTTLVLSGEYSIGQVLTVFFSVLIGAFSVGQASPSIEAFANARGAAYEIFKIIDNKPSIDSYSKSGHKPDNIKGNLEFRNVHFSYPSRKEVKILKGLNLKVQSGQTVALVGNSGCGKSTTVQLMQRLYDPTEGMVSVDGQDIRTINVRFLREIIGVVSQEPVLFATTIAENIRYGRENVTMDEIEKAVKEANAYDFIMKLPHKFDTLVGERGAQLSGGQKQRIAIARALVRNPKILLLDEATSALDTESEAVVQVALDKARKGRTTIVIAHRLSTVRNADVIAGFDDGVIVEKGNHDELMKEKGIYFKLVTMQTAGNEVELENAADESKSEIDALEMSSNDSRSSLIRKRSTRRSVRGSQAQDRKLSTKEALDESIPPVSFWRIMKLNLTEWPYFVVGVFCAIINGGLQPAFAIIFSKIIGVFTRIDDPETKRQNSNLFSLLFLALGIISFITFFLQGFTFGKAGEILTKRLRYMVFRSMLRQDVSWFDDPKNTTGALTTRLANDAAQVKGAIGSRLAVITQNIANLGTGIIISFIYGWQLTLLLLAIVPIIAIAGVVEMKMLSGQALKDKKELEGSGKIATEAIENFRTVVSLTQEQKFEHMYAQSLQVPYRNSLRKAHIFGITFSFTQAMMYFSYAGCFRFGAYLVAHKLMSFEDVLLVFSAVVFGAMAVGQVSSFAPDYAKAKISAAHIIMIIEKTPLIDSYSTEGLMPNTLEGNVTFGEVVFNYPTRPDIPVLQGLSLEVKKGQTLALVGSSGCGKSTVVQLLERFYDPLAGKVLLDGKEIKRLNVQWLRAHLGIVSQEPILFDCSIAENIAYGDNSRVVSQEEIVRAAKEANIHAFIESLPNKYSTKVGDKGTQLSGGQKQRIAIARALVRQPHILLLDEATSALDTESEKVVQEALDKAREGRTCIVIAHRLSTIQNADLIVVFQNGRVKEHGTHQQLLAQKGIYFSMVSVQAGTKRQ
Protocol: KG1 cell line was maintained in Iscove's modified Dulbecco medium with 20% fetal calf serum (FCS) and 2 mM L-glutamine, 100 units/ml penicillin and 100 μg/ml streptomycin (GIBCO Laboratories, Grand Island, N.Y.).
A functional assay was used to detect changes in P-glycoprotein activity in human PBL treated with different agents that induce lymphoid differentiation or activation, based on flow cytometric analysis of cellular accumulation of Rh123, which is a P-glycoprotein-transported fluorescent mitochondrial dye. In this assay, cells expressing little or no P-glycoprotein stain brightly with Rh123, whereas cells with higher levels of P-glycoprotein activity appear Rh123-dull. […] Since the best-known cellular effect of TPA is the stimulation of PKC, it was also tested whether DOG, a cell-permeable diacylglycerol and a physiological stimulant of PKC, would have an effect on Rh123 accumulation in PBL.

[9] = test system: hormone-refractory prostate cancer; settings: continuous infusion, peak of 300 μg/ml at end of 14 days; cited from earlier work

## CCCCCCCCCCCCC/C=C/[C@H](O)[C@@H](N)CO (relative stereo) [D,L-threo-sphingosine]
[1]
  inhibition of Ara-C induced MDR1 expression: little or no capacity to inhibit Ara-C induced MDR1 expression; also recorded: ineffective in inhibiting Ara-C induced MDR1 expression
[1]; H9 cells, 25 μM Ara-C 10 h
  inhibition of Ara-C induced MDR1 expression: -
[2]
  cellular toxicity: higher concentrations induced cellular toxicity

## CC1CN(S(=O)(=O)c2cccc3cnccc23)CCN1 (stereo not drawn) [IsoH7]
[3]
  effect on protein kinases relative to H7: 10 fold
[1]; IsoH7
  inhibition of drug-induced MDR1 expression: No significant inhibition

## CCCCCCCCCCCCCC(=O)O[C@@H]1[C@@H](C)[C@@]2(O)[C@@H](C=C(CO)C[C@]3(O)C(=O)C(C)=C[C@@H]23)[C@@H]2C(C)(C)[C@]12OC(C)=O [TPA, 12-o-tetradecanoylphorbol-13-acetate]
[4]
  MDR1 expression, TPA-treated: ++
[4]; mouse FL4 (thymoma), untreated ++, assay F
  MDR1 expression, TPA-treated: +++
[5]
  P-glycoprotein on the cell surface: markedly increased the levels of P-glycoprotein on the cell surface
[6]
  MDR1 expression, TPA-treated: -
[6]; 0.001 ug/mL
  MDR1 expression, TPA-treated: ++
[6]; 0.01 ug/mL
  MDR1 expression, TPA-treated: ++
[6]; 0.1 ug/mL
  MDR1 expression, TPA-treated: +++
[6]; EJ (bladder carcinoma), untreated +, assay F
  MDR1 expression, TPA-treated: ++
[6]; HT 1080 (fibrosarcoma), untreated -, assays F, R
  MDR1 expression, TPA-treated: -
[6]; MCF-7 (breast carcinoma), untreated -, assay R
  MDR1 expression, TPA-treated: +
[6]; Molt-4 (T-cell leukemia), untreated -, assay F
  MDR1 expression, TPA-treated: -
[6]; THP-1, untreated -, assay F
  MDR1 expression, TPA-treated: -
[7]; EJ bladder carcinoma cells
  increase of MDR1 expression: increase of MDR1 expression
[7]; H9 cells
  induction of MDR1 mRNA and P-glycoprotein: clear-cut induction of MDR1 mRNA and P-glycoprotein
[7]; H9 cells, TPA
  time after addition at which MDR1 mRNA became detectable: 2 h
  time until which MDR1 mRNA continued to increase: ≥ 5 h
[7]; H-9 cells, 10 ng/ml overnight
  MDR1 expression induced by TPA alone: efficiently induced readily detectable MDR1 expression
[7]; K562 cells
  induction of MDR1 mRNA and P-glycoprotein: clear-cut induction of MDR1 mRNA and P-glycoprotein
[7]; MCF-7 breast carcinoma cells
  increase of MDR1 expression: increase of MDR1 expression
[7]; human PBL, PCR
  MDR1 mRNA levels: corresponding increase in MDR1 mRNA levels
[8]
  effect on P-glycoprotein activity (Rh123 accumulation): significant increase in the number of Rh123-dull cells

## Cc1ccc(C(=O)Nc2ccc(S(=O)(=O)O)c3cc(S(=O)(=O)O)cc(S(=O)(=O)O)c23)cc1NC(=O)c1cccc(NC(=O)Nc2cccc(C(=O)Nc3cc(C(=O)Nc4ccc(S(=O)(=O)O)c5cc(S(=O)(=O)O)cc(S(=O)(=O)O)c45)ccc3C)c2)c1 [suramin]
[9]
  activity in hormone-refractory prostate cancer: shown activity in hormone-refractory prostate cancer
